Measured values from patent publication US12428389B2, “Diarylamide compound and application thereof” (Sunshine Lake Pharma Co., Ltd., priority 2019, dated 2025).
pIC50: −log10 of the molar value. Read-outs that look alike come from different tables or passages of the source.

Tests used:
[1] = biological target: T1, human UT-B (Homo sapiens, UniProt Q13336); assay: erythrocyte lysis model, human erythrocytes; format: cell-based
T1 construct: endogenous in cells; host or cells: human erythrocytes
T1 sequence (Q13336 1-389): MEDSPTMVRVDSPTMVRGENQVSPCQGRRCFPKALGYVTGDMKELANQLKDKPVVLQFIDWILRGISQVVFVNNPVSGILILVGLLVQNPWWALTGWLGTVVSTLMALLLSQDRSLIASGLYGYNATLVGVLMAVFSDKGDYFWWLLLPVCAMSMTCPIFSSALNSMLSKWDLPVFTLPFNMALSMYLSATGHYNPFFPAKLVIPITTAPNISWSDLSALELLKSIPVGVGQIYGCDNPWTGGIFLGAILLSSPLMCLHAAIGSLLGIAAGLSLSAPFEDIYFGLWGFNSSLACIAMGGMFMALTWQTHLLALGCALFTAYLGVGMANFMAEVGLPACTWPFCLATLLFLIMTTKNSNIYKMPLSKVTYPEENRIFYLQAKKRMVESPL
Method: (§1) Erythrocyte lysis rate was calculated:
(§2) The formula for calculating the lysis rate percentage of erythrocytes, wherein Atest was the absorbance value of the test well, Aneg was the absorbance value of the negative control well, and Apos was the absorbance value of the positive control well. Erythrocyte lysis rate was calculated by measuring absorption at a wavelength of 710 nm.
(§3) The erythrocytes of three species of human, rats (SD rats) and mice (C57 mice) were taken, and urea transporter inhibitors were preliminarily screened from the above screening compound library by using the erythrocyte urea transporter inhibitor screening model.

[2] = biological target: T2, UT-B (Mus musculus, UniProt Q8VHL0); assay: erythrocyte lysis model, mouse erythrocytes; format: cell-based; details: concentration when the erythrocyte lysis rate of mice was 50%
T2 construct: endogenous in cells; host or cells: erythrocytes of C57 mice
T2 sequence (Q8VHL0 1-384): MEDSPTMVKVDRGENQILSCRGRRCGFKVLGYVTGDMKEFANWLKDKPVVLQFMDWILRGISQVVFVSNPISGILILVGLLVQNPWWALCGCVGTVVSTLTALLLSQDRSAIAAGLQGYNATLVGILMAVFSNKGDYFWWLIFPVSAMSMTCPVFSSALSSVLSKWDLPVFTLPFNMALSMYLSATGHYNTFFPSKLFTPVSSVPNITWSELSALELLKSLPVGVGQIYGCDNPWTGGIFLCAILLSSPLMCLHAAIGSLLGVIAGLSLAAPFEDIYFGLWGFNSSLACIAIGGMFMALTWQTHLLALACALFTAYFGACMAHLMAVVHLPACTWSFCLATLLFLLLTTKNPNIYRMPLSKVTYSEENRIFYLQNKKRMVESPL
Method: as §1, §2, §3

[3] = biological target: T3, UT-B (Rattus norvegicus, UniProt P97689); assay: erythrocyte lysis model, rat erythrocytes; format: cell-based, rats
T3 construct: endogenous in cells; host or cells: erythrocytes of SD rats
T3 sequence (P97689 1-384): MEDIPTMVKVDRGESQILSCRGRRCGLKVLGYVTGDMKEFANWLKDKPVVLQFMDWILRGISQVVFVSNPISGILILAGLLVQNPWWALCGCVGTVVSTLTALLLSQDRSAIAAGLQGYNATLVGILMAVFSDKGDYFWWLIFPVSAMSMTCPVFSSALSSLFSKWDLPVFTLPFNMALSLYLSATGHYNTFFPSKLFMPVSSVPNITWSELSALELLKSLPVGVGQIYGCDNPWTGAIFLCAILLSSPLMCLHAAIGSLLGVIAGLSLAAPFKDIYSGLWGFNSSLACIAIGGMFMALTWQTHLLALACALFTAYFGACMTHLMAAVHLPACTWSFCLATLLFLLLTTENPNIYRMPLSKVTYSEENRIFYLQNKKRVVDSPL
Method: as §1, §2, §3

[4] = class of the IC50 to human UT-B, read-out: Activity level
[5] = concentration when the erythrocyte lysis rate of human was 50%, read-out: IC50 human
[6] = concentration when the erythrocyte lysis rate of rats was 50%, read-out: IC50 rats

Compound | pIC50 [1, 4] | pIC50 [1, 5] | pIC50 [2] | pIC50 [3, 6] | pIC50 ([1]; Activity level, class of the IC50 to human UT-B) | pIC50 ([1]; IC50 human, concentration when the erythrocyte lysis rate of human was 50%) | pIC50 [3]
CN(C)CCC(=O)Nc1ccc(NC(=O)c2ccc([N+](=O)[O-])o2)cc1 [Example 73, N-(4-(3-dimethylamino)propionylaminophenyl)-5-nitrofuran-2-carboxamide] | > 5.00 | 5.18 | 4.57 | 5.89 | – | – | –
N#Cc1cccc(NC(=O)c2ccc([N+](=O)[O-])o2)c1 [Example 40, N-(3-cyanophenyl)-5-nitrofuran-2-carboxamide] | > 5.00 | 6.00 | 5.11 | 5.56 | – | – | –
O=C(Nc1ccc2ncccc2c1)c1ccc([N+](=O)[O-])o1 [Example 16, N-(quinolin-6-yl)-5-nitrofuran-2-carboxamide] | > 5.00 | 5.79 | 5.29 | 5.26 | – | – | –
CCOC(=O)c1cc(NC(=O)c2ccc([N+](=O)[O-])o2)[nH]n1 [Example 77, ethyl 5-(5-nitrofuran-2-carboxamide)-1H-pyrazole-3-carboxylate] | > 5.00 | 5.79 | 4.94 | 5.11 | – | – | –
CN(C)CC(=O)Nc1ccc(NC(=O)c2ccc([N+](=O)[O-])o2)cc1 [Example 71, N-(4-(2-dimethylamino)acetamidophenyl)-5-nitrofuran-2-carboxamide] | > 5.00 | 5.90 | 5.27 | 6.24 | – | – | –
CNC(=O)c1cc(F)cc(NC(=O)c2ccc([N+](=O)[O-])o2)c1 [Example 66, N-(5-fluoro-3-methylcarbomoylphenyl)-5-nitrofuran-2-carboxamide] | > 5.00 | 5.48 | 5.65 | 6.06 | – | – | –
O=C(Nc1ccc(CCO)cc1)c1ccc([N+](=O)[O-])o1 [Example 50, N-(4-(2-hydroxyethyl)phenyl)-5-nitrofuran-2-carboxamide] | > 5.00 | 5.28 | 4.99 | 5.08 | – | – | –
CNC(=O)c1cc(NC(=O)c2ccc([N+](=O)[O-])o2)ccc1C [Example 63, N-(4-methyl-3-methylcarbamoylphenyl)-5-nitrofuran-2-carboxamide] | > 5.00 | 5.77 | 5.91 | 5.75 | – | – | –
C#Cc1cccc(NC(=O)c2ccc([N+](=O)[O-])o2)c1 [Example 79, N-3-(ethynylphenyl)-5-nitrofuran-2-carboxamide] | > 5.00 | 6.09 | 5.31 | 5.96 | – | – | –
O=C(CN1CCOCC1)Nc1ccc(NC(=O)c2ccc([N+](=O)[O-])o2)cc1 [Example 72, N-(4-(2-morpholinyl)acetamidophenyl)-5-nitrofuran-2-carboxamide] | > 5.00 | 5.52 | 5.13 | 5.54 | – | – | –
O=C(Nc1ccccc1F)c1ccc([N+](=O)[O-])o1 [Example 35, N-(2-fluorophenyl)-5-nitrofuran-2-carboxamide] | > 5.00 | 5.44 | 4.36 | 5.42 | – | – | –
CNC(=O)c1cccc(NC(=O)c2ccc(C(C)=O)o2)c1 [Example 78, 3-(5-acetyl-2-furoyl)carbamamide] | > 5.00 | 6.89 | 6.28 | 6.62 | – | – | –
O=C(Nc1cc[nH]n1)c1ccc([N+](=O)[O-])o1 [Example 20, N-(1H-pyrazol-5-yl)-5-nitrofuran-2-carboxamide] | > 5.00 | 6.66 | 5.96 | 5.87 | – | – | –
O=C(NCCN1CCOCC1)c1cccc(NC(=O)c2ccc([N+](=O)[O-])o2)c1 [Example 61, N-(3-((2-morpholinylethyl)carbamoyl)phenyl)-5-nitrofuran-2-carboxamide] | > 5.00 | 6.27 | 5.58 | 5.96 | – | – | –
COc1ccccc1NC(=O)c1ccc([N+](=O)[O-])o1 [Example 29, N-(2-methoxyphenyl)-5-nitrofuran-2-carboxamide] | > 5.00 | 5.31 | 4.77 | 5.39 | – | – | –
CC(C)CNC(=O)c1cccc(NC(=O)c2ccc([N+](=O)[O-])o2)c1 [Example 57, N-(3-(isobutylcarbamoyl)phenyl)-5-nitrofuran-2-carboxamide] | > 5.00 | 5.85 | 6.30 | 7.05 | – | – | –
CC(=O)c1cccc(NC(=O)c2ccc([N+](=O)[O-])o2)c1 [Example 46, N-(3-acetylphenyl)-5-nitrofuran-2-carboxamide] | > 5.00 | 5.74 | 5.61 | 6.31 | – | – | –
O=C(Nc1cccc(F)c1)c1ccc([N+](=O)[O-])o1 [Example 36, N-(3-fluorophenyl)-5-nitrofuran-2-carboxamide] | > 5.00 | 5.51 | 5.03 | 5.73 | – | – | –
O=C(Nc1ccon1)c1ccc([N+](=O)[O-])o1 [Example 19, N-(isoxazol-3-yl)-5-nitrofuran-2-carboxamide] | > 5.00 | 5.44 | 4.99 | 4.52 | – | – | –
O=C(Nc1ccc(NC(=O)c2ccc([N+](=O)[O-])o2)cc1)c1ccc([N+](=O)[O-])o1 [Example 52, N,N′-(1,4-phenylene)bis(5-nitrofuran-2-carboxamide)] | – | – | 6.28 | – | > 5.00 | 6.19 | 6.57
CCOC(=O)c1c[nH]nc1NC(=O)c1ccc([N+](=O)[O-])o1 [Example 76, ethyl 5-(5-nitrofuran-2-carboxamide)-1H-pyrazole-4-carboxylate] | < 4.10 | < 4.10 | 4.83 | – | – | – | –
O=C(NCCCN1CCOCC1)c1cccc(NC(=O)c2ccc([N+](=O)[O-])o2)c1 [Example 62, N-(3-((3-morpholinylpropyl)carbamoyl)phenyl)-5-nitrofuran-2-carboxamide] | > 5.00 | 5.48 | 5.36 | 5.85 | – | – | –
CC(C)NC(=O)c1cccc(NC(=O)c2ccc([N+](=O)[O-])o2)c1 [Example 56, N-(3-(isopropylcarbamoyl)phenyl)-5-nitrofuran-2-carboxamide] | > 5.00 | 5.40 | 5.01 | 5.75 | – | – | –
O=C(Nc1cccc(O)c1)c1ccc([N+](=O)[O-])o1 [Example 32, N-(3-hydroxyphenyl)-5-nitrofuran-2-carboxamide] | > 5.00 | 6.04 | 5.62 | 6.17 | – | – | –
CNC(=O)c1cc(NC(=O)c2ccc([N+](=O)[O-])o2)cc(C(=O)NC)c1 [Example 68, N^1,N^3-dimethyl-5-(5-nitrofuran-2-carboxamide) isophthalamide] | 4.10 to 4.70 | 4.64 | 5.24 | 4.46 | – | – | –
Cn1cc(NC(=O)c2ccc([N+](=O)[O-])o2)cn1 [Example 22, N-(1-methyl-1H-pyrazol-4-yl)-5-nitrofuran-2-carboxamide] | 4.70 to 5.00 | 4.80 | 4.48 | 5.02 | – | – | –
CNC(=O)c1cc(NC(=O)c2ccc([N+](=O)[O-])o2)ccc1O [Example 67, N-(4-hydroxy-3-methylcarbomoylphenyl)-5-nitrofuran-2-carboxamide] | > 5.00 | 5.58 | 5.58 | 5.95 | – | – | –
Nc1cccc(NC(=O)c2ccc([N+](=O)[O-])o2)c1 [Example 34, N-(3-aminophenyl)-5-nitrofuran-2-carboxamide] | > 5.00 | 5.45 | 4.98 | 5.74 | – | – | –
